According to PMC9945408 (Food Chemistry: X, 2023):

Target: T1, indoleamine 2,3-dioxygenase 1 (IDO1) (Homo sapiens, UniProt P14902)
Assay: % inhibition at […], capillary electrophoresis enzyme assay
Format: biochemical

T1 sequence (P14902 whole entry): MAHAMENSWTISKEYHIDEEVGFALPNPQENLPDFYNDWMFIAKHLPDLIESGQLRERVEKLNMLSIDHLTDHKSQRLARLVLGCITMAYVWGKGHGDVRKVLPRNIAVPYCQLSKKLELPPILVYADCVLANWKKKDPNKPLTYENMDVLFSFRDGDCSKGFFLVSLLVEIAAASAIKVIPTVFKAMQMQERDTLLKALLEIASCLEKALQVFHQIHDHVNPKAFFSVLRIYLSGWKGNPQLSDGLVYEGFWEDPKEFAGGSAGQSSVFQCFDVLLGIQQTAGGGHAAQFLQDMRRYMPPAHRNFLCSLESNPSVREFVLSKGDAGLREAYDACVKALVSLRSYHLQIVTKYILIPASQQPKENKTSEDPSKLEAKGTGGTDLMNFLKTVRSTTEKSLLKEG

Row | Structure (SMILES) | inhibition at 100 µM [%]
1 | O=C(/C=C/c1ccc(O)c(O)c1)O[C@H]1[C@H](O)C[C@](O)(C(=O)O)C[C@H]1O [compound 3, Cryptochlorogenic acid] | 11.8
2 | COc1cc(/C=C/C(=O)O[C@@H]2C[C@@](O)(C(=O)O)C[C@@H](O)[C@@H]2O)ccc1O [compound 4, 3-O-Feruloylquinic acid] | 16.4
3 | O=C(/C=C/c1ccc(O)c(O)c1)O[C@@H]1C[C@@](O)(C(=O)O)C[C@@H](O)[C@@H]1O [compound 1, Neochlorogenic acid] | 10.9

Continued, values first:

Row | inhibition at 100 µM [%] | Structure (SMILES)
4 | 12.7 | COc1cc(/C=C/C(=O)O[C@@H]2C[C@](O)(C(=O)O)C[C@@H](O)[C@H]2O)ccc1O [compound 6, 5-O-Feruloylquinic acid]
5 | 19.1 | O=C(/C=C/c1ccc(O)c(O)c1)O[C@H]1[C@H](O)C[C@](O)(C(=O)O)C[C@H]1OC(=O)/C=C/c1ccc(O)c(O)c1 [compound 8, Isochlorogenic acid B]
6 | 10.9 | O=C(/C=C/c1ccc(O)c(O)c1)O[C@@H]1[C@H](O)C[C@@](O)(C(=O)O)C[C@H]1OC(=O)/C=C/c1ccc(O)c(O)c1 [compound 10, Isochlorogenic acid C]

Target: T1, indoleamine 2,3-dioxygenase 1 (IDO1)
Assay: capillary electrophoresis enzyme assay
Format: biochemical

Row | IC50 [µM] | Structure (SMILES)
7 | 308 | O=C(/C=C/c1ccc(O)c(O)c1)O[C@@H]1C[C@](O)(C(=O)O)C[C@@H](O)[C@H]1O [compound 2, Chlorogenic acid]
8 | 114 | COc1cc(/C=C/C(=O)O)ccc1O [compound 7, Ferulic acid]
